Experiments:
Assay type in all cases: in vivo
Conditions in all cases: 250 g/ha, evaluated after 13 days, five-point scale
AMAPA [1] = assay: Pre-emergence herbicidal glasshouse test
Protocol: [Worded in the source for another organism; this organism is reported under the same test.] (§1) Seeds of a variety of test species are sown in standard soil in pots Amaranthus retoflexus (AMARE), Echinochloa crus-galli (ECHCG), Setaria faberi (SETFA)). After cultivation for one day (pre-emergence) or after 8 days cultivation (post-emergence) under controlled conditions in a glasshouse (at 24/16° C., day/night; 14 hours light; 65% humidity), the plants are sprayed with an aqueous spray solution derived from the formulation of the technical active ingredient in acetone/water (50:50) solution containing 0.5% Tween 20 (polyoxyethelyene sorbitan monolaurate, CAS RN 9005-64-5). Compounds are applied at 250 g/ha unless otherwise stated. The test plants are then grown in a glasshouse under controlled conditions in a glasshouse (at 24/16° C., day/night; 14 hours light; 65% humidity) and watered twice daily. After 13 days for pre and post-emergence, the test is evaluated for the percentage damage caused to the plant. The biological activities are shown in the following table on a five-point scale (5=81-100%; 4=61-80%; 3=41-60%; 2=21-40%; 1=0-20%).

[2] = tested on: Amaranthus retoflexus (AMARE); assay: Pre-emergence herbicidal glasshouse test
Protocol: as §1

[3] = tested on: Echinochloa crus-galli (ECHCG); assay: Pre-emergence herbicidal glasshouse test
Protocol: as §1

IPOHE [4] = assay: Pre-emergence herbicidal glasshouse test
Protocol: as §1

AMAPA [5] = assay: Post-emergence herbicidal glasshouse test
Protocol: [Worded in the source for another organism; this organism is reported under the same test.] as §1

[6] = tested on: Amaranthus retoflexus (AMARE); assay: Post-emergence herbicidal glasshouse test
Protocol: as §1

[7] = tested on: Echinochloa crus-galli (ECHCG); assay: Post-emergence herbicidal glasshouse test
Protocol: as §1

IPOHE [8] = assay: Post-emergence herbicidal glasshouse test
Protocol: as §1

| SMILES | percentage damage caused to the plant, AMAPA (AMAPA [1]) | percentage damage caused to the plant, AMARE [2] | percentage damage caused to the plant, ECHCG [3] | percentage damage caused to the plant, IPOHE (IPOHE [4]) | percentage damage caused to the plant, AMAPA (AMAPA [5]) | percentage damage caused to the plant, AMARE [6] | percentage damage caused to the plant, ECHCG [7] | percentage damage caused to the plant, IPOHE (IPOHE [8]) |
| --- | --- | --- | --- | --- | --- | --- | --- | --- |
| FC(F)(F)c1cn(Cc2ncc(Cl)cn2)c(-c2sc(Cl)nc2Cl)n1 [Compound 1.046] | 4 (4=61-80%) | 1 (1=0-20%) | 1 (1=0-20%) | 1 (1=0-20%) | 2 (2=21-40%) | 2 (2=21-40%) | 1 (1=0-20%) | 1 (1=0-20%) |
| FC(F)(F)c1cn(Cc2ccc(Cl)cn2)c(-c2ccc(Cl)s2)n1 [Compound 1.047] | 5 (5=81-100%) | 5 (5=81-100%) | 4 (4=61-80%) | 2 (2=21-40%) | 5 (5=81-100%) | 5 (5=81-100%) | 4 (4=61-80%) | 4 (4=61-80%) |
| N#Cc1ccc(Cn2cc(C(F)(F)F)nc2-c2ccc(Cl)s2)nc1 [Compound 1.049] | 5 (5=81-100%) | 5 (5=81-100%) | 4 (4=61-80%) | 5 (5=81-100%) | 5 (5=81-100%) | 5 (5=81-100%) | 4 (4=61-80%) | 4 (4=61-80%) |
| Fc1ccc(Cn2cc(C(F)(F)F)nc2-c2ccc(Cl)s2)nc1 [Compound 1.050] | 5 (5=81-100%) | 5 (5=81-100%) | 5 (5=81-100%) | 5 (5=81-100%) | 4 (4=61-80%) | 4 (4=61-80%) | 4 (4=61-80%) | 4 (4=61-80%) |
| Fc1cc(Cl)cnc1Cn1cc(C(F)(F)F)nc1-c1ccc(Cl)s1 [Compound 1.051] | 5 (5=81-100%) | 5 (5=81-100%) | 5 (5=81-100%) | 4 (4=61-80%) | 5 (5=81-100%) | 5 (5=81-100%) | 4 (4=61-80%) | 3 (3=41-60%) |
| FC(F)c1cn(Cc2ncc(Cl)cn2)c(-c2ccc(Cl)s2)n1 [Compound 1.058, 5-chloro-2-[[2-(5-chloro-2-thienyl)-4-(difluoromethyl)imidazol-1-yl]methyl]pyrimidine] | 5 (5=81-100%) | 5 (5=81-100%) | 5 (5=81-100%) | 5 (5=81-100%) | 5 (5=81-100%) | 5 (5=81-100%) | 4 (4=61-80%) | 4 (4=61-80%) |
| FC(F)c1cn(Cc2ncc(Cl)cn2)c(-c2cnc(Cl)s2)n1 [Compound 1.071, 2-chloro-5-[1-[(5-chloropyrimidin-2-yl)methyl]-4-(difluoromethyl)imidazol-2-yl]thiazole] | 5 (5=81-100%) | 5 (5=81-100%) | 4 (4=61-80%) | 5 (5=81-100%) | 4 (4=61-80%) | 5 (5=81-100%) | 4 (4=61-80%) | 2 (2=21-40%) |
| Cc1cnc(Cn2cc(C(F)(F)F)nc2-c2ccc(Cl)s2)nc1 [Compound 1.072] | 5 (5=81-100%) | 5 (5=81-100%) | 5 (5=81-100%) | 5 (5=81-100%) | 5 (5=81-100%) | 5 (5=81-100%) | 5 (5=81-100%) | 4 (4=61-80%) |
